These compounds were tested against T1, HDAC6 enzyme (Homo sapiens, UniProt Q9UBN7) (assay: HDAC6 enzyme inhibitory activity (HDAC-Glo I/II Assay kit)). Details: 10 μM; wells without enzyme = 100% inhibition; read-out: HDAC6 inhibitory rate (%) (10 μM).
T1 construct: transducing full length HDAC6 gene into Sf-9 insect cells; GST; purchased SignalChem; host or cells: Sf-9 insect cells
T1 sequence (Q9UBN7 1-1215): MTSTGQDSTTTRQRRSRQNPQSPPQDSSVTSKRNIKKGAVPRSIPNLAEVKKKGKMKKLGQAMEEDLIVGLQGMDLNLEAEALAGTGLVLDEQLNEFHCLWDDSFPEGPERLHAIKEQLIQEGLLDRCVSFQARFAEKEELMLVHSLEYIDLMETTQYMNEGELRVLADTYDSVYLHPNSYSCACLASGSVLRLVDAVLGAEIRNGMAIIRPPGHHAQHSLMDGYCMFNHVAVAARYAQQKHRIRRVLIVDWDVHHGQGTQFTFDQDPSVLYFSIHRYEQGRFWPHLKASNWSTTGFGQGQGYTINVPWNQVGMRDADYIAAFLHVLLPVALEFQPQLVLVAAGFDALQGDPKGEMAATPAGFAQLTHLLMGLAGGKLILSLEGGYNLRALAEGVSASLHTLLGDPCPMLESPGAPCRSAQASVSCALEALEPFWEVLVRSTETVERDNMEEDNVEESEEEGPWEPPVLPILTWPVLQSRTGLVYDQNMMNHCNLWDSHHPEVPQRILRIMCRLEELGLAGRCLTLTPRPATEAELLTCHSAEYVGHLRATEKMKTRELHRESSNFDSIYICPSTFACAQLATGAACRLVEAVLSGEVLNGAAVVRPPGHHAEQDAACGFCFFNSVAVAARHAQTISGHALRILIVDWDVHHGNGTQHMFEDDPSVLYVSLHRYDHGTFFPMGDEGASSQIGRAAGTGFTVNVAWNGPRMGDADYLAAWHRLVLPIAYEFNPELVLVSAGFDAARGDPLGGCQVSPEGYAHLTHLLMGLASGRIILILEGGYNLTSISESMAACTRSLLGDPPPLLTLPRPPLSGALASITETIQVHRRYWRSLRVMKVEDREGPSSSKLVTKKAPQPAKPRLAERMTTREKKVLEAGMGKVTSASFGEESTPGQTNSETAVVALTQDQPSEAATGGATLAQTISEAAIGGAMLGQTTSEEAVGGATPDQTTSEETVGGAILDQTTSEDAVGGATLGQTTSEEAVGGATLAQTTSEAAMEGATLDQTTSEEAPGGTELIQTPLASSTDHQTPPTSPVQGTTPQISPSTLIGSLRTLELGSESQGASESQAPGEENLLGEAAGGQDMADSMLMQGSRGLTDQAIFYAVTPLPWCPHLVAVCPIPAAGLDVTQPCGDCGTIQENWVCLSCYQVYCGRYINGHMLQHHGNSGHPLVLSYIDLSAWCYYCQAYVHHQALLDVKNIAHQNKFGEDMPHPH
Assay type: biochemical
Method in brief: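 Sf-9-derived GST-purified full-length HDAC6 + cpd, 60 min RT, 24 mM Tris pH 7.5/0.6 mM glutathione/0.01% Tween-20; add HDAC-Glo substrate-developer, 20 min RT; luminescence. No-enzyme = 100% inhibition.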

Row | Compound | inhibition at 10 µM
1 | O=C1c2cc(-c3nnc(C(F)F)o3)ccc2CN1[C@@H]1CCCC[C@H]1NC(=O)C1(c2ccccc2)CCC1 [Example 89, N-((1R,2R)-2-(6-(5-(difluoromethyl)-1,3,4-oxadiazol-2-yl)-1-oxo-1,3-dihydro-2H-isoindol-2-yl)cyclohexyl)-1-phenylcyclobutanecarboxamide] | 100%
2 | O=C1c2cc(-c3nnc(C(F)F)o3)ccc2CN1[C@@H]1CCCC[C@H]1NC(=O)C1(c2ccccc2)COC1 [Example 90, N-((1R,2R)-2-(6-(5-(difluoromethyl)-1,3,4-oxadiazol-2-yl)-1-oxo-1,3-dihydro-2H-isoindol-2-yl)cyclohexyl)-3-phenyloxetane-3-carboxamide] | 100%
3 | Cn1cncc1C(=O)N[C@@H]1CCCC[C@H]1N1Cc2ccc(-c3nnc(C(F)F)o3)cc2C1=O [Example 96, N-((1R,2R)-2-(6-(5-(difluoromethyl)-1,3,4-oxadiazol-2-yl)-1-oxo-1,3-dihydro-2H-isoindol-2-yl)cyclohexyl)-1-methyl-1H-imidazole-5-carboxamide] | 98%
4 | O=C(N[C@@H]1CCCC[C@H]1N1Cc2ccc(-c3nnc(C(F)F)o3)cc2C1=O)c1ccccc1 [Example 98, N-((1R,2R)-2-(6-(5-(difluoromethyl)-1,3,4-oxadiazol-2-yl)-1-oxo-1,3-dihydro-2H-isoindol-2-yl)cyclohexyl)benzamide] | 101%
5 | O=C(N[C@@H]1CCCC[C@H]1N1Cc2ccc(-c3nnc(C(F)F)o3)cc2C1=O)c1ccccc1Cl [Example 99, 2-chloro-N-((1R,2R)-2-(6-(5-(difluoromethyl)-1,3,4-oxadiazol-2-yl)-1-oxo-1,3-dihydro-2H-isoindol-2-yl)cyclohexyl)benzamide] | 100%
6 | O=C(N[C@@H]1CCCC[C@H]1N1Cc2ccc(-c3nnc(C(F)F)o3)cc2C1=O)c1cccc(Cl)c1 [Example 100, 3-chloro-N-((1R,2R)-2-(6-(5-(difluoromethyl)-1,3,4-oxadiazol-2-yl)-1-oxo-1,3-dihydro-2H-isoindol-2-yl)cyclohexyl)benzamide] | 100%
7 | O=C(N[C@@H]1CCCC[C@H]1N1Cc2ccc(-c3nnc(C(F)F)o3)cc2C1=O)c1ccc(Cl)cc1 [Example 101, 4-chloro-N-((1R,2R)-2-(6-(5-(difluoromethyl)-1,3,4-oxadiazol-2-yl)-1-oxo-1,3-dihydro-2H-isoindol-2-yl)cyclohexyl)benzamide] | 99%
8 | C[C@](O)(C(=O)N[C@@H]1CCCC[C@H]1N1Cc2ccc(-c3nnc(C(F)F)o3)cc2C1=O)C(F)(F)F [Example 103, (2S)-N-((1R,2R)-2-(6-(5-(difluoromethyl)-1,3,4-oxadiazol-2-yl)-1-oxo-1,3-dihydro-2H-isoindol-2-yl)cyclohexyl)-3,3,3-trifluoro-2-hydroxy-2-methylpropanamide] | 98%
9 | C[C@@](O)(C(=O)N[C@@H]1CCCC[C@H]1N1Cc2ccc(-c3nnc(C(F)F)o3)cc2C1=O)C(F)(F)F [Example 104, (2R)-N-((1R,2R)-2-(6-(5-(difluoromethyl)-1,3,4-oxadiazol-2-yl)-1-oxo-1,3-dihydro-2H-isoindol-2-yl)cyclohexyl)-3,3,3-trifluoro-2-hydroxy-2-methylpropanamide] | 97%
10 | O=C(N[C@@H]1CCCC[C@H]1N1Cc2ccc(-c3nnc(C(F)F)o3)cc2C1=O)c1ccccn1 [Example 105, N-((1R,2R)-2-(6-(5-(difluoromethyl)-1,3,4-oxadiazol-2-yl)-1-oxo-1,3-dihydro-2H-isoindol-2-yl)cyclohexyl)pyridine-2-carboxamide] | 98%
11 | CCCCCCC(=O)N[C@@H]1CCCC[C@H]1N1Cc2ccc(-c3nnc(C(F)F)o3)cc2C1=O [Example 107, N-((1R,2R)-2-(6-(5-(difluoromethyl)-1,3,4-oxadiazol-2-yl)-1-oxo-1,3-dihydro-2H-isoindol-2-yl)cyclohexyl)heptanamide] | 102%
12 | O=C1c2cc(-c3nnc(C(F)F)o3)ccc2CN1[C@@H]1CCCC[C@H]1NC(=O)C1(c2ccc(F)cc2)CC1 [Example 108, N-((1R,2R)-2-(6-(5-(difluoromethyl)-1,3,4-oxadiazol-2-yl)-1-oxo-1,3-dihydro-2H-isoindol-2-yl)cyclohexyl)-1-(4-fluorophenyl)cyclopropanecarboxamide] | 100%
13 | O=C1c2cc(-c3nnc(C(F)F)o3)ccc2CN1[C@@H]1CCCC[C@H]1NC(=O)C1(c2ccc(F)cc2)CCC1 [Example 109, N-((1R,2R)-2-(6-(5-(difluoromethyl)-1,3,4-oxadiazol-2-yl)-1-oxo-1,3-dihydro-2H-isoindol-2-yl)cyclohexyl)-1-(4-fluorophenyl)cyclobutanecarboxamide] | 97%
14 | O=C1c2cc(-c3nnc(C(F)F)o3)ccc2CN1c1ccccc1Br [Example 112, 2-(2-bromophenyl)-6-(5-(difluoromethyl)-1,3,4-oxadiazol-2-yl)isoindolin-1-one] | 95%

Other lines, results leading:

Row | inhibition at 10 µM | Compound
15 | 100% | O=C(N[C@@H]1CCCC[C@H]1N1Cc2ccc(-c3nnc(C(F)F)o3)cc2C1=O)C1COC1 [Example 91, N-((1R,2R)-2-(6-(5-(difluoromethyl)-1,3,4-oxadiazol-2-yl)-1-oxo-1,3-dihydro-2H-isoindol-2-yl)cyclohexyl)oxetane-3-carboxamide]
16 | 101% | CCC1(C(=O)N[C@@H]2CCCC[C@H]2N2Cc3ccc(-c4nnc(C(F)F)o4)cc3C2=O)COC1 [Example 92, N-((1R,2R)-2-(6-(5-(difluoromethyl)-1,3,4-oxadiazol-2-yl)-1-oxo-1,3-dihydro-2H-isoindol-2-yl)cyclohexyl)-3-ethyloxetane-3-carboxamide]
17 | 100% | O=C(N[C@@H]1CCCC[C@H]1N1Cc2ccc(-c3nnc(C(F)F)o3)cc2C1=O)[C@@H]1CCCO1 [Example 93, (2S)-N-((1R,2R)-2-(6-(5-(difluoromethyl)-1,3,4-oxadiazol-2-yl)-1-oxo-1,3-dihydro-2H-isoindol-2-yl)cyclohexyl)tetrahydrofuran-2-carboxamide]
18 | 100% | O=C(N[C@@H]1CCCC[C@H]1N1Cc2ccc(-c3nnc(C(F)F)o3)cc2C1=O)[C@@H]1CCOC1 [Example 94]
19 | 96% | O=C(N[C@@H]1CCCC[C@H]1N1Cc2ccc(-c3nnc(C(F)F)o3)cc2C1=O)C1CCOCC1 [Example 95, N-((1R,2R)-2-(6-(5-(difluoromethyl)-1,3,4-oxadiazol-2-yl)-1-oxo-1,3-dihydro-2H-isoindol-2-yl)cyclohexyl)tetrahydro-2H-pyran-4-carboxamide]
20 | 100% | Cn1cc(C(=O)N[C@@H]2CCCC[C@H]2N2Cc3ccc(-c4nnc(C(F)F)o4)cc3C2=O)cn1 [Example 97, N-((1R,2R)-2-(6-(5-(difluoromethyl)-1,3,4-oxadiazol-2-yl)-1-oxo-1,3-dihydro-2H-isoindol-2-yl)cyclohexyl)-1-methyl-1H-pyrazole-4-carboxamide]
21 | 96% | O=C(N[C@@H]1CCCC[C@H]1N1Cc2ccc(-c3nnc(C(F)F)o3)cc2C1=O)C1CCC(F)(F)CC1 [Example 102, N-((1R,2R)-2-(6-(5-(difluoromethyl)-1,3,4-oxadiazol-2-yl)-1-oxo-1,3-dihydro-2H-isoindol-2-yl)cyclohexyl)-4,4-difluorocyclohexanecarboxamide]
22 | 99% | CC(C)(F)C(=O)N[C@@H]1CCCC[C@H]1N1Cc2ccc(-c3nnc(C(F)F)o3)cc2C1=O [Example 106, N-((1R,2R)-2-(6-(5-(difluoromethyl)-1,3,4-oxadiazol-2-yl)-1-oxo-1,3-dihydro-2H-isoindol-2-yl)cyclohexyl)-2-fluoro-2-methylpropanamide]
23 | 98% | O=C(CC1CCC1)N[C@@H]1CCCC[C@H]1N1Cc2ccc(-c3nnc(C(F)F)o3)cc2C1=O [Example 110, 2-cyclobutyl-N-((1R,2R)-2-(6-(5-(difluoromethyl)-1,3,4-oxadiazol-2-yl)-1-oxo-1,3-dihydro-2H-isoindol-2-yl)cyclohexyl)acetamide]

Source: patent US10435399B2, “HDAC6 inhibitory heterocyclic compound” (TAKEDA PHARMACEUTICAL COMPANY LIMITED, priority 2017, dated 2019)
